# Source: patent US6727264B1 (Synaptic Pharmaceutical Corporation, priority 2001, dated 2004)
# Target: rat MCH-1 (Rattus norvegicus, UniProt P97639)
# Assay: Radioligand binding assay at cloned rat MCH1 receptor ([3H] Compound A)
# Set-up: host or cells: Peak rapid 293 (Peakr293) cells, transient calcium phosphate transfection, membranes
# Conditions: cloned rat MCH1 receptor; 0.08 nM [3H] Compound A; Peakr293 cell membranes; read-out: Ki (nM) rMCH1
# Chain of rat MCH-1 (P97639 whole entry): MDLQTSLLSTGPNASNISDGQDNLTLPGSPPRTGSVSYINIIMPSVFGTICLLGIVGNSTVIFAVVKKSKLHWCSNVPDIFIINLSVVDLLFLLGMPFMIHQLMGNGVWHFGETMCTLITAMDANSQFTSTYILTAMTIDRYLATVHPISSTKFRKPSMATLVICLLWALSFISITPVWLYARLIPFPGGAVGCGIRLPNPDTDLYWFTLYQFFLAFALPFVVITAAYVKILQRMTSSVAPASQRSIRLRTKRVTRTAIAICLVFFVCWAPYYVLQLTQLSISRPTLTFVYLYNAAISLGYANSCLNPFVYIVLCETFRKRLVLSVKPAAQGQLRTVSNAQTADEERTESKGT
row,Ki [nM],Structure (SMILES)
1,95.1,Cc1ccc2c(CN3CCC(c4cccc(NC(=O)C(C)C)c4)CC3)c[nH]c2c1 [Example 495]
2,288,CC(C)C(=O)Nc1cccc(C2CCN(Cc3c[nH]c4cc(OCc5ccccc5)ccc34)CC2)c1 [Example 496]
3,97.7,COc1ccc2c(CN3CCC(c4cccc(NC(=O)C(C)C)c4)CC3)c[nH]c2c1 [Example 497]
4,52.2,"COC(=O)c1ccc2c(CN3CCC(c4cccc(NC(=O)C(C)C)c4)CC3)c[nH]c2c1 [Example 498, METHYL 3-({4-[3-(ISOBUTYRYLAMINO)PHENYL]-1-PIPERIDINYL}METHYL)-1H-INDOLE-6-CARBOXYLATE]"
5,11.9,CC(C)C(=O)Nc1cccc(C2CCN(Cc3c[nH]c4cc(C(F)(F)F)ccc34)CC2)c1 [Example 499]
6,29.4,CC(C)C(=O)Nc1cccc(C2CCN(Cc3cn(-c4cccnc4)c4ccccc34)CC2)c1 [Example 500]
7,22.1,CC(C)C(=O)Nc1cccc(C2CCN(Cc3cn(-c4ccccn4)c4ccccc34)CC2)c1 [Example 501]
8,4.6,CC(C)C(=O)Nc1cccc(C2CCN(Cc3cn(-c4ccccc4)c4cc(F)ccc34)CC2)c1 [Example 502]
9,6,CC(C)C(=O)Nc1cccc(C2CCN(Cc3cn(-c4ccccc4)c4cc(Cl)ccc34)CC2)c1 [Example 503]
10,22.5,CC(C)C(=O)Nc1cccc(C2CCN(Cc3cn(-c4ccccc4)c4cc(OCc5ccccc5)ccc34)CC2)c1 [Example 504]
11,6.5,Cc1ccc2c(CN3CCC(c4cccc(NC(=O)C(C)C)c4)CC3)cn(-c3ccccc3)c2c1 [Example 505]
12,2.5,"COC(=O)c1ccc2c(CN3CCC(c4cccc(NC(=O)C(C)C)c4)CC3)cn(-c3ccccc3)c2c1 [Example 506, METHYL 3-({4-[3-(ISOBUTYRYLAMINO)PHENYL]-1-PIPERIDINYL}METHYL)-1-PHENYL-1H-INDOLE-6-CARBOXYLATE]"
13,57.9,CC(C)C(=O)Nc1cccc(C2CCN(Cc3c[nH]c4cc([N+](=O)[O-])ccc34)CC2)c1 [Example 507]
14,8.5,CC(C)C(=O)Nc1cccc(C2CCN(Cc3cn(-c4ccccc4)c4cc(C(F)(F)F)ccc34)CC2)c1 [Example 508]
15,24.3,Cc1cccc2c(CN3CCC(c4cccc(NC(=O)C(C)C)c4)CC3)cn(-c3ccccc3)c12 [Example 509]
16,305,COc1cccc2c(CN3CCC(c4cccc(NC(=O)C(C)C)c4)CC3)c[nH]c12 [Example 510]
17,6,COc1cccc2c(CN3CCC(c4cccc(NC(=O)C(C)C)c4)CC3)cn(-c3ccccc3)c12 [Example 511]
18,42.7,CC(C)C(=O)Nc1cccc(C2CCN(Cc3cn(-c4ccccc4)c4c(Cl)cccc34)CC2)c1 [Example 512]
19,179,CC(C)C(=O)Nc1cccc(C2CCN(Cc3c[nH]c4c([N+](=O)[O-])cccc34)CC2)c1 [Example 513]
20,151,O=C(Nc1cccc(C2CCN(Cc3c[nH]c4c([N+](=O)[O-])cccc34)CC2)c1)C1CC1 [Example 514]
21,296,CCC(=O)Nc1cccc(C2CCN(Cc3c[nH]c4c([N+](=O)[O-])cccc34)CC2)c1 [Example 515]
22,90.9,CC(C)C(=O)Nc1cccc(C2CCN(Cc3c[nH]c4c(-c5ccccc5F)cccc34)CC2)c1 [Example 516]
23,287,CC(C)C(=O)Nc1cccc(C2CCN(Cc3c[nH]c4c(-c5ccc6ccccc6c5)cccc34)CC2)c1 [Example 517]
24,226,CCc1ccc(-c2cccc3c(CN4CCC(c5cccc(NC(=O)C(C)C)c5)CC4)c[nH]c23)cc1 [Example 518]
25,80.9,Cc1ccccc1-c1ccc2c(CN3CCC(c4cccc(NC(=O)C(C)C)c4)CC3)c[nH]c2c1 [Example 519]
26,135,CC(C)C(=O)Nc1cccc(C2CCN(Cc3c[nH]c4c(-c5cccc(Cl)c5)cccc34)CC2)c1 [Example 520]

row,Ki [nM],Structure (SMILES)
1,27,CC(C)C(=O)Nc1cccc(C2CCN(Cc3c[nH]c4c(-c5cccc([N+](=O)[O-])c5)cccc34)CC2)c1 [Example 521]
2,247,CC(=O)c1ccc(-c2cccc3c(CN4CCC(c5cccc(NC(=O)C(C)C)c5)CC4)c[nH]c23)cc1 [Example 522]
3,54.8,CCc1ccc(-c2ccc3c(CN4CCC(c5cccc(NC(=O)C(C)C)c5)CC4)c[nH]c3c2)cc1 [Example 523]
4,199,Cc1ccccc1-c1cccc2c(CN3CCC(c4cccc(NC(=O)C(C)C)c4)CC3)c[nH]c12 [Example 524]
5,91.4,CC(C)C(=O)Nc1cccc(C2CCN(Cc3c[nH]c4cc(-c5ccccc5F)ccc34)CC2)c1 [Example 525]
6,411,CC(C)C(=O)Nc1cccc(C2CCN(Cc3c[nH]c4ccc(Br)cc34)CC2)c1 [Example 526]
7,226,Cc1ccc(Oc2ccc3[nH]cc(CN4CCC(c5cccc(NC(=O)C(C)C)c5)CC4)c3c2)cc1 [Example 527]
8,115,CC(C)C(=O)Nc1cccc(C2CCN(CCCCCCC(=O)c3ccccc3)CC2)c1 [Example 528]
9,42.4,CC(C)C(=O)Nc1cccc(C2CCN(CCCCCC(=O)c3ccccc3)CC2)c1 [Example 529]
10,105,CCC(=O)Nc1cccc(C2CCN(CCCC(=O)c3ccc(OC)cc3)CC2)c1 [Example 531]
11,8.7,CCC(=O)Nc1cccc(C2CCN(CCCC(=O)c3ccc(Cl)cc3)CC2)c1 [Example 532]
12,10.6,CCC(=O)Nc1cccc(C2CCN(CCCC(=O)c3ccc(Br)cc3)CC2)c1 [Example 533]
13,155,CCC(=O)Nc1cccc(C2CCN(CCCC(=O)c3ccc(C(C)(C)C)cc3)CC2)c1 [Example 534]
14,28.1,CCC(=O)Nc1cccc(C2CCN(CCCC(=O)c3ccc(F)cc3)CC2)c1 [Example 535]
15,150,CCC(=O)Nc1cccc(C2CCN(CCCC(=O)c3ccc(Oc4ccccc4)cc3)CC2)c1 [Example 536]
16,67.7,CC(C)c1ccc(C(=O)CCCN2CCC(c3cccc(NC(=O)C4CC4)c3)CC2)cc1 [Example 537]
17,36.3,COc1ccc(C(=O)CCCN2CCC(c3cccc(NC(=O)C4CC4)c3)CC2)cc1 [Example 538]
18,268,O=C(CCCN1CCC(c2cccc(NC(=O)C3CC3)c2)CC1)c1ccc(Oc2ccccc2)cc1 [Example 539]
19,172,CCC(=O)Nc1cccc(C2CCN(CCCC(=O)c3ccc(C(C)C)cc3)CC2)c1 [Example 540]
20,319,CC(C)(C)c1ccc(C(=O)CCCN2CCC(c3cccc(NC(=O)C4CC4)c3)CC2)cc1 [Example 541]
21,31.3,CCC(=O)Nc1cccc(C2CCN(CCCC(=O)c3ccc(C)cc3)CC2)c1 [Example 542]
22,27.6,CCC(=O)Nc1cccc(C2CCN(CCCC(=O)c3ccc(C)c(C)c3)CC2)c1 [Example 543]
23,16.2,O=C(CCCN1CCC(c2cccc(NC(=O)C3CC3)c2)CC1)c1ccc(Br)cc1 [Example 544]
24,52,CCC(=O)Nc1cccc(C2CCN(CCCCC(=O)c3ccc(F)cc3)CC2)c1 [Example 545]
25,87.9,Cc1ccc(C(=O)CCCN2CCC(c3cccc(NC(=O)C4CC4)c3)CC2)cc1C [Example 546]
26,75.5,Cc1ccc(C(=O)CCCN2CCC(c3cccc(NC(=O)C4CC4)c3)CC2)cc1 [Example 547]

row,Ki [nM],Structure (SMILES)
1,126,O=C(CCCN1CCC(c2cccc(NC(=O)C3CC3)c2)CC1)c1ccc(F)cc1 [Example 548]
2,39.7,O=C(CCCCN1CCC(c2cccc(NC(=O)C3CC3)c2)CC1)c1cccc(F)c1 [Example 549]
3,60.9,CCC(=O)Nc1cccc(C2CCN(CCCCC(=O)c3ccc(C(F)(F)F)cc3)CC2)c1 [Example 550]
4,21.6,O=C(CCCCN1CCC(c2cccc(NC(=O)C3CC3)c2)CC1)c1ccc(F)cc1 [Example 551]
5,24.7,CCC(=O)Nc1cccc(C2CCN(CCCCC(=O)c3cccc([N+](=O)[O-])c3)CC2)c1 [Example 552]
6,27.5,O=C(CCCCN1CCC(c2cccc(NC(=O)C3CC3)c2)CC1)c1cccc([N+](=O)[O-])c1 [Example 553]
7,70.9,CCC(=O)Nc1cccc(C2CCN(CCCCC(=O)c3ccccc3F)CC2)c1 [Example 554]
8,50.3,CCC(=O)Nc1cccc(C2CCN(CCCCC(=O)c3cccc(F)c3)CC2)c1 [Example 555]
9,35.6,CCC(=O)Nc1cccc(C2CCN(CCCCC(=O)c3ccc([N+](=O)[O-])cc3)CC2)c1 [Example 556]
10,25.6,O=C(CCCCN1CCC(c2cccc(NC(=O)C3CC3)c2)CC1)c1ccc([N+](=O)[O-])cc1 [Example 557]
11,20.2,O=C(CCCCN1CCC(c2cccc(NC(=O)C3CC3)c2)CC1)c1ccc(Cl)cc1 [Example 558]
12,62.3,CCC(=O)Nc1cccc(C2CCN(CCCCC(=O)c3ccccc3C(F)(F)F)CC2)c1 [Example 559]
13,55.7,O=C(CCCCN1CCC(c2cccc(NC(=O)C3CC3)c2)CC1)c1ccccc1C(F)(F)F [Example 560]
14,92.9,CCC(=O)Nc1cccc(C2CCN(CCCCC(=O)c3ccc(Cl)cc3)CC2)c1 [Example 561]
15,48.1,CCC(=O)Nc1cccc(C2CCN(CCCCC(=O)c3cccc(Cl)c3)CC2)c1 [Example 562]
16,50.2,O=C(CCCCN1CCC(c2cccc(NC(=O)C3CC3)c2)CC1)c1ccccc1F [Example 563]
17,28.9,O=C(CCCCN1CCC(c2cccc(NC(=O)C3CC3)c2)CC1)c1cccc(Cl)c1 [Example 564]
18,49.2,O=C(CCCCN1CCC(c2cccc(NC(=O)C3CC3)c2)CC1)c1ccc(C(F)(F)F)cc1 [Example 565]
19,77.8,CCC(=O)Nc1cccc(C2CCN(CCCCC(=O)c3ccccc3Cl)CC2)c1 [Example 566]
20,92.2,O=C(CCCCN1CCC(c2cccc(NC(=O)C3CC3)c2)CC1)c1ccccc1Cl [Example 567]
21,68.8,O=C(CCCCN1CCC(c2cccc(NC(=O)C3CC3)c2)CC1)c1cccc(C(F)(F)F)c1 [Example 568]
22,549,Cc1ccc(C(=O)CCCN2CCC(c3cccc(N(C)C(=O)C(C)C)c3)CC2)cc1C [Example 569]
23,136,CC(C)C(=O)Nc1cccc(C2CCN(C(C)CCC(=O)c3ccccc3)CC2)c1 (stereo not shown) [Example 570]
24,88.3,CCC(=O)Nc1cccc(C2CCN(CCCCC(=O)c3cccc(C(F)(F)F)c3)CC2)c1 [Example 571]
